According to ChEMBL document CHEMBL1128577, “Synthesis and biological evaluation of novel 2,6-diaminobenz[cd]indole inhibitors of thymidylate synthase using the protein structure as a guide” (J Med Chem, 1995):

Columns and labels:
CCRF-CEM = assay: Compound is screened for cell growth inhibition against CCRF-CEM cell line, a human lymphoblastic leukemia line of T-cell origin; type: functional, cell-based
GC3/MTK- = assay: Compound is screened for cell growth inhibition against GC3/MTK-cell line, a human thymidine kinase deficient adenocarcinoma line; type: functional, cell-based
L1210 = assay: Compound is screened for cell growth inhibition against L1210 murine leukemia tumor cell line; type: functional, cell-based; conditions: Mus musculus
Thymidylate synthase [1] = target: Thymidylate synthase (Homo sapiens, UniProt P04818); assay: Inhibitory effect against recombinant human thymidylate synthase
[2] = Compound is evaluated for thymidine shift. […]; type: functional
Thymidylate synthase [3] = target: Thymidylate synthase (Escherichia coli, UniProt C3SWJ7); assay: Inhibitory effect against Escherichia coli thymidylate synthase
Chain of Thymidylate synthase (Escherichia coli, UniProt C3SWJ7) (C3SWJ7 whole entry): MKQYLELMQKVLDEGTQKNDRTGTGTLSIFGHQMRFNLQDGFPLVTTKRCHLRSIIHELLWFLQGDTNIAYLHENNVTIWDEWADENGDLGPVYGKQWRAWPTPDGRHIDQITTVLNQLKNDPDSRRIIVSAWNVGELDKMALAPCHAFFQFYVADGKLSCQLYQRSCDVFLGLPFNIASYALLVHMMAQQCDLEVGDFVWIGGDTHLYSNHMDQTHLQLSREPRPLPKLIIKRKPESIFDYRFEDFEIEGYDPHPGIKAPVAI

Chain of Thymidylate synthase (Homo sapiens, UniProt P04818) (P04818 whole entry): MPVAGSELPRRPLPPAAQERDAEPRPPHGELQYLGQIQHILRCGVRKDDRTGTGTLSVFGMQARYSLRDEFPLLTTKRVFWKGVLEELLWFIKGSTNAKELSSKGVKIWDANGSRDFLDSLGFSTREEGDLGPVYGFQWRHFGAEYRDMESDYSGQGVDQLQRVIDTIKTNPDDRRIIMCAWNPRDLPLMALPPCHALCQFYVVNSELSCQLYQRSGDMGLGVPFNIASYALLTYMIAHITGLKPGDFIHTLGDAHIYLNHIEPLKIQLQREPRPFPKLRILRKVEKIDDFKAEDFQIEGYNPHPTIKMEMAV

Structure (SMILES) | IC50 (CCRF-CEM) [nM] | IC50 (L1210) [nM] | Ki (Thymidylate synthase [1]) [nM] | Ki (Thymidylate synthase [3]) [nM] | IC50 (GC3/MTK-) [nM] | Thymidine shift [2]
Cc1ccc2c3c(ccc(N(C)Cc4ccnnc4)c13)N=C2N | 780 | 450 | 10 | – | 2100 | 12.1
CN(Cc1ccnnc1)c1ccc2c3c(cccc13)C(N)=N2 | 4000 | 900 | 15 | 18000 | 5000 | 7.7
CN(Cc1ccc(S(=O)(=O)N2CCOCC2)cc1)c1ccc2c3c(cccc13)C(=N)N2 | – | – | – | – | – | 6.7
CNC1=Nc2ccc(N(C)Cc3ccnnc3)c3c(C)ccc1c23 | 3700 | 800 | 30 | – | 9900 | 2.6
CN(Cc1ccnc(Sc2ccccc2)c1)c1ccc2c3c(cccc13)C(N)=N2 | 2000 | 660 | 52 | – | 11500 | 1.8
Cc1cc(CN(C)c2ccc3c4c(ccc(C)c24)C(N)=N3)ccn1 | 450 | 170 | 4 | – | 600 | 4.1
CN(Cc1ccnc(CO)c1)c1ccc2c3c(cccc13)C(N)=N2 | 3000 | 1300 | 18 | – | 11000 | 6.9
CN(Cc1ccnc(C(F)(F)F)c1)c1ccc2c3c(cccc13)C(N)=N2 | 5900 | 2100 | 45 | – | 12000 | 4.2
CCc1cc(CN(C)c2ccc3c4c(cccc24)C(N)=N3)ccn1 | 3000 | 1000 | 25 | – | 6500 | 2.8
CN(Cc1ccc(S(=O)(=O)N2CCOCC2)cc1)c1ccc2c3c(cccc13)C(N)=N2 [METESIND] | – | – | 15 | 5400 | – | –

More lines, main results first:

IC50 (CCRF-CEM) [nM] | IC50 (L1210) [nM] | Ki (Thymidylate synthase [1]) [nM] | Ki (Thymidylate synthase [3]) [nM] | Structure (SMILES) | IC50 (GC3/MTK-) [nM] | Thymidine shift [2]
9000 | 6900 | 310 | – | CNC1=Nc2ccc(N(C)Cc3ccnnc3)c3cccc1c23 | 26000 | 1.9
5100 | 1900 | 270 | – | CNC1=Nc2ccc(N(C)Cc3ccncc3)c3cccc1c23 | 23000 | 2.6
440 | 160 | 6 | 600 | Cc1ccc2c3c(ccc(N(C)Cc4ccncc4)c13)N=C2N | 1100 | 2.3
2300 | 1600 | 14 | 1800 | Cc1cc(CN(C)c2ccc3c4c(cccc24)C(N)=N3)ccn1 | 7900 | 2.1
2400 | 95 | 17 | 6600 | CN(Cc1ccncc1)c1ccc2c3c(cccc13)C(N)=N2 | 4800 | 4.9
1100 | 210 | 14 | – | CNC1=Nc2ccc(N(C)Cc3ccncc3)c3c(C)ccc1c23 | 3600 | 4.1
